Data published in patent US12570666B2, “Furoindazole derivatives” (Bayer Aktiengesellschaft, priority 2019, dated 2026).

Target: T1, human GPR84 receptor (Homo sapiens, UniProt Q9NQS5)
T1 construct: frozen aliquots prepared by acCELLerate; host or cells: CHO-K1
Assay: cAMP HTRF assay for identification of cellular GPR84 antagonists
Type: cell-based
Conditions: CHO-K1 cells stably expressing human GPR84; Forskolin + agonist 6-OAU (EC80); average or median values
How it was run: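 IC50 came from 4-parameter fits over 20 μM–0.07 nM (11 points, duplicate), normalized between DMSO (0%) and agonist-free (100% inhibition) wells. Readout: cAMP-d2/Eu-cryptate HTRF in hGPR84 CHO-K1 cells given forskolin plus agonist, compound preincubated 30 min at room temperature.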

T1 sequence (Q9NQS5 whole entry): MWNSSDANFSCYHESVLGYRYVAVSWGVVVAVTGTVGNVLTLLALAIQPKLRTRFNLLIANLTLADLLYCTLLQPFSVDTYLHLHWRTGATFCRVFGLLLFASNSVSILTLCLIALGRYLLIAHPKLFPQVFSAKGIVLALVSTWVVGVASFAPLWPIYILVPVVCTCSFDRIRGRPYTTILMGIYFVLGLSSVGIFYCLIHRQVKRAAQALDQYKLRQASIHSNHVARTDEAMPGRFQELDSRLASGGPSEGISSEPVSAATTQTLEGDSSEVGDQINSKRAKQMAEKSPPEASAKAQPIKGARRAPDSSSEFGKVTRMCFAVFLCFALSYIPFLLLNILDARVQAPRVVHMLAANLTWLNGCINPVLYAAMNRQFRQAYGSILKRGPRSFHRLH

Row | SMILES | IC50 [nM]
1 | O=C(NC[C@@H]1CCCO1)c1oc2c(c1C(F)(F)F)-c1nn(C[C@H]3COCCO3)cc1CC2 [Example 221, 2-{[(2S)-1,4-dioxan-2-yl]methyl}-N-{[(2S)-oxolan-2-yl]methyl}-8-(trifluoromethyl)-4,5-dihydro-2H-furo[2,3-g]indazole-7-carboxamide] | 8
2 | O=C(NCc1nccs1)c1oc2c(c1C(F)(F)F)-c1nn(C[C@H]3COCCO3)cc1CC2 [Example 226, 2-[(2S)-1,4-Dioxan-2-ylmethyl]-N-(1,3-thiazol-2-ylmethyl)-8-(trifluormethyl)-4,5-dihydro-2H-furo[2,3-g]indazol-7-carboxamide] | 16
3 | Cc1cnc(CNC(=O)c2oc3c(c2C(F)(F)F)-c2nn(C[C@H]4COCCO4)cc2CC3)cn1 [Example 227, 2-[(2S)-1,4-Dioxan-2-ylmethyl]-N-[(5-methylpyrazin-2-yl)methyl]-8-(trifluormethyl)-4,5-dihydro-2H-furo[2,3-g]indazol-7-carboxamide] | 24
4 | O=C(NCc1cnccn1)c1oc2c(c1C(F)(F)F)-c1nn(C[C@H]3COCCO3)cc1CC2 [Example 228, 2-[(2S)-1,4-Dioxan-2-ylmethyl]-N-(pyrazin-2-ylmethyl)-8-(trifluormethyl)-4,5-dihydro-2H-furo[2,3-g]indazol-7-carboxamide] | 38
5 | Cn1cnc(CNC(=O)c2oc3c(c2C(F)(F)F)-c2nn(C[C@H]4COCCO4)cc2CC3)c1 [Example 229, 2-[(2S)-1,4-Dioxan-2-ylmethyl]-N-[(1-methyl-1H-imidazol-4-yl)methyl]-8-(trifluormethyl)-4,5-dihydro-2H-furo[2,3-g]indazol-7-carboxamide] | 89
6 | O=C(NCc1cncs1)c1oc2c(c1C(F)(F)F)-c1nn(C[C@H]3COCCO3)cc1CC2 [Example 230, 2-[(2S)-1,4-Dioxan-2-ylmethyl]-N-(1,3-thiazol-5-ylmethyl)-8-(trifluormethyl)-4,5-dihydro-2H-furo[2,3-g]indazol-7-carboxamide] | 881
7 | Cc1ccnc(CCNC(=O)c2oc3c(c2C(F)(F)F)-c2nn(C[C@H]4COCCO4)cc2CC3)c1 [Example 231, 2-[(2S)-1,4-Dioxan-2-ylmethyl]-N-[2-(4-methylpyridin-2-yl)ethyl]-8-(trifluormethyl)-4,5-dihydro-2H-furo[2,3-g]indazol-7-carboxamide] | 1390
8 | O=C(NCCc1ccccn1)c1oc2c(c1C(F)(F)F)-c1nn(C[C@H]3COCCO3)cc1CC2 [Example 233, 2-[(2S)-1,4-Dioxan-2-ylmethyl]-N-[2-(pyridin-2-yl)ethyl]-8-(trifluormethyl)-4,5-dihydro-2H-furo[2,3-g]indazol-7-carboxamide] | 1120
9 | Cc1ccn(CCNC(=O)c2oc3c(c2C(F)(F)F)-c2nn(C[C@H]4COCCO4)cc2CC3)n1 [Example 234, 2-[(2S)-1,4-Dioxan-2-ylmethyl]-N-[2-(3-methyl-1H-pyrazol-1-yl)ethyl]-8-(trifluormethyl)-4,5-dihydro-2H-furo[2,3-g]indazol-7-carboxamide] | 3470
10 | O=C(NCCc1c[nH]cn1)c1oc2c(c1C(F)(F)F)-c1nn(C[C@H]3COCCO3)cc1CC2 [Example 235, 2-[(2S)-1,4-Dioxan-2-ylmethyl]-N-[2-(1 H-imidazol-4-yl)ethyl]-8-(trifluormethyl)-4,5-dihydro-2H-furo[2,3-g]indazol-7-carboxamide] | 1600
11 | O=C(NCCc1cccnc1)c1oc2c(c1C(F)(F)F)-c1nn(C[C@H]3COCCO3)cc1CC2 [Example 236, 2-[(2S)-1,4-Dioxan-2-ylmethyl]-N-[2-(pyridin-3-yl)ethyl]-8-(trifluormethyl)-4,5-dihydro-2H-furo[2,3-g]indazol-7-carboxamide] | 8760
12 | O=C(NCCc1nccs1)c1oc2c(c1C(F)(F)F)-c1nn(C[C@H]3COCCO3)cc1CC2 [Example 237, 2-[(2S)-1,4-Dioxan-2-ylmethyl]-N-[2-(1,3-thiazol-2-yl)ethyl]-8-(trifluormethyl)-4,5-dihydro-2H-furo[2,3-g]indazol-7-carboxamide] | 496
13 | Cc1cccc(CNC(=O)c2oc3c(c2C(F)(F)F)-c2nn(C[C@H]4COCCO4)cc2CC3)n1 [Example 238, 2-[(2S)-1,4-Dioxan-2-ylmethyl]-N-[(6-methylpyridin-2-yl)methyl]-8-(trifluormethyl)-4,5-dihydro-2H-furo[2,3-g]indazol-7-carboxamide] | 500
14 | O=C(NCc1cocn1)c1oc2c(c1C(F)(F)F)-c1nn(C[C@H]3COCCO3)cc1CC2 [Example 239, 2-[(2S)-1,4-Dioxan-2-ylmethyl]-N-(1,3-oxazol-4-ylmethyl)-8-(trifluormethyl)-4,5-dihydro-2H-furo[2,3-g]indazol-7-carboxamide] | 136
15 | O=C(NCCc1cnccn1)c1oc2c(c1C(F)(F)F)-c1nn(C[C@H]3COCCO3)cc1CC2 [Example 240, 2-{[(2S)-1,4-dioxan-2-yl]methyl}-N-[2-(pyrazin-2-yl)ethyl]-8-(trifluoromethyl)-4,5-dihydro-2H-furo[2,3-g]indazole-7-carboxamide] | 2810
16 | O=C(NC[C@@H]1COCCO1)c1oc2c(c1C(F)(F)F)-c1nn(CC3CCOCC3)cc1CC2 [Example 242, N-{[(2R)-1,4-dioxan-2-yl]methyl}-2-[(oxan-4-yl)methyl]-8-(trifluoromethyl)-4,5-dihydro-2H-furo[2,3-g]indazole-7-carboxamide] | 29
17 | O=C(NC[C@@H]1CCCO1)c1oc2c(c1C(F)(F)F)-c1nn(CC3CCOCC3)cc1CC2 [Example 243, 2-[(oxan-4-yl)methyl]-N-{[(2S)-oxolan-2-yl]methyl}-8-(trifluoromethyl)-4,5-dihydro-2H-furo[2,3-g]indazole-7-carboxamide] | 26
18 | O=C(NC[C@@H]1COCCO1)c1oc2c(c1C(F)F)-c1nn(C[C@H]3COCCO3)cc1CC2 [Example 244, 8-(difluoromethyl)-N-{[(2R)-1,4-dioxan-2-yl]methyl}-2-{[(2S)-1,4-dioxan-2-yl]methyl}-4,5-dihydro-2H-furo[2,3-g]indazole-7-carboxamide] | 53
19 | O=C(NC[C@@H]1CCCO1)c1oc2c(c1C(F)F)-c1nn(C[C@H]3COCCO3)cc1CC2 [Example 245, 8-(difluoromethyl)-2-{[(2S)-1,4-dioxan-2-yl]methyl}-N-{[(2S)-oxolan-2-yl]methyl}-4,5-dihydro-2H-furo[2,3-g]indazole-7-carboxamide] | 61
20 | C[C@@H]1Cc2oc(C(=O)NC[C@@H]3CCCO3)c(C(F)(F)F)c2-c2nn(CC3CCOCC3)cc21 [Example 264, (4 or 4S)-4-methyl-2-[(oxan-4-yl)methyl]-N-{[(2S)-oxolan-2-yl]methyl}-8-(trifluoromethyl)-4,5-dihydro-2H-furo[2,3-g]indazole-7-carboxamide] | 13
21 | CC1(C)Cc2oc(C(=O)NC[C@@H]3COCCO3)c(C(F)(F)F)c2-c2nn(C[C@H]3COCCO3)cc21 [Example 267, N-{[(2R)-1,4-dioxan-2-yl]methyl}-2-{[(2S)-1,4-dioxan-2-yl]methyl}-4,4-dimethyl-8-(trifluoromethyl)-4,5-dihydro-2H-furo[2,3-g]indazole-7-carboxamide] | 57
22 | CC1(C)Cc2oc(C(=O)NC[C@@H]3CCCO3)c(C(F)(F)F)c2-c2nn(C[C@H]3COCCO3)cc21 [Example 268, 2-{[(2S)-1,4-dioxan-2-yl]methyl}-4,4-dimethyl-N-{[(2S)-oxolan-2-yl]methyl}-8-(trifluoromethyl)-4,5-dihydro-2H-furo[2,3-g]indazole-7-carboxamide] | 38
23 | O=C(NC[C@@H]1COCCO1)c1oc2c(c1C(F)(F)F)-c1nn(C[C@H]3COCCO3)cc1C1(CCC1)C2 [Example 269, N-[(2R)-1,4-dioxan-2-ylmethyl]-2′-[(2S)-1,4-dioxan-2-ylmethyl]-8′-(trifluormethyl)-2′,5′-dihydrospiro[cyclobutan-1,4′-furo[2,3-g]indazol]-7′-carboxamide] | 27
24 | Cn1ccc(CNC(=O)c2oc3c(c2C(F)(F)F)-c2nn(C[C@H]4COCCO4)cc2C2(CCC2)C3)n1 [Example 270, 2′-[(2S)-1,4-dioxan-2-ylmethyl]-N-[(1-methyl-1H-pyrazol-3-yl)methyl]-8′-(trifluormethyl)-2′,5′-dihydrospiro[cyclobutan-1,4′-furo[2,3-g]indazol]-7′-carboxamide] | 192
25 | O=C(NC[C@@H]1CCCO1)c1oc2c(c1C(F)(F)F)-c1nn(C[C@H]3COCCO3)cc1C1(CCC1)C2 [Example 271, 2′-[(2S)-1,4-dioxan-2-ylmethyl]-N-[(2S)-tetrahydrofuran-2-ylmethyl]-8′-(trifluormethyl)-2′,5′-dihydrospiro[cyclobutan-1,4′-furo[2,3-g]indazol]-7′-carboxamide] | 26
26 | O=C(NCc1ncco1)c1oc2c(c1C(F)(F)F)-c1nn(C[C@H]3COCCO3)cc1C1(CCC1)C2 [Example 272, 2′-{[(2S)-1,4-dioxan-2-yl]methyl}-N-[(1,3-oxazol-2-yl)methyl]-8′-(trifluoromethyl)-2′,51-dihydrospiro[cyclobutane-1,4′-furo[2,3-g]indazole]-7′-carboxamide] | 42
27 | O=C(NC[C@@H]1COCCO1)c1oc2c(c1C(F)(F)F)-c1nn(Cc3ccccn3)cc1C1(CCC1)C2 [Example 273, N-[(2R)-1,4-Dioxan-2-ylmethyl]-2′-(pyridin-2-ylmethyl)-8′-(trifluormethyl)-2′,5′-dihydrospiro[cyclobutan-1,4′-furo[2,3-g]indazol]-7′-carboxamide] | 9
28 | O=C(NC[C@@H]1CCCO1)c1oc2c(c1C(F)(F)F)-c1nn(Cc3ccccn3)cc1C1(CCC1)C2 [Example 274, 2′-(Pyridin-2-ylmethyl)-N-[(2S)-tetrahydrofuran-2-ylmethyl]-8′-(trifluormethyl)-2′,5′-dihydrospiro[cyclobutan-1,4′-furo[2,3-g]indazol]-7′-carboxamide] | 10
